This note sets out measurements from patent US20260014119A1, “EMOPAMIL-BINDING PROTEIN INHIBITORS AND USES THEREOF” (BIOGEN MA INC., priority 2022, published 2026).

Bounds are passed on as bounds.

This experiment deals with T1, EBP (Homo sapiens, UniProt Q15125).
T1 construct: HEK293T cells were utilized as the source of EBP enzyme; endogenous in cells; host or cells: HEK293T
T1 sequence (Q15125 whole entry): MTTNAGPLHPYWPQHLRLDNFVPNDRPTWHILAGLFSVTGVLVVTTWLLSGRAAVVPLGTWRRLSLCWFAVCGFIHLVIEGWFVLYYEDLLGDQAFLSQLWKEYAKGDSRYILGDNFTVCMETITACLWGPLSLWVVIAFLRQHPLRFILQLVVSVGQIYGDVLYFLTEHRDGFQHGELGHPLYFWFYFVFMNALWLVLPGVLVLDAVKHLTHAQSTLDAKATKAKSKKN
Briefly: EBP Functional Assay (EBP immunoaffinity LC-MS assay). It is filed as biochemical. The following applies: EBP enzyme from HEK293T cells; 30 min with inhibitor, then zymosterol-d5 at 37° C. for 4 h; percent conversion by LC-APCI MRM MS. How it is done: The EBP immunoaffinity (IA) LC-MS assay measures the potency of small molecule inhibitors of EBP by quantifying their concentration-dependent changes in the enzyme's substrate and product using liquid chromatography atmospheric pressure chemical ionization multiple reaction monitoring mass spectrometry (LC-APCI MRM MS). HEK293T cells were utilized as the source of EBP enzyme. The enzyme was incubated with the small molecule inhibitors at variable concentrations for 30 min. Deuterated form of EBP substrate, zymosterol-d5 (Avanti Polar Lipids, Cat #700068P-1 mg), was then added and the plate was incubated at 37° C. for 4 h. Finally, the sterol isomers were extracted and injected to LC-APCI MRM MS. MRM transition used for the quantification for both zymosterol and […] (substrate and product of EBP enzymatic reaction, respectively) is 372.3-203.2, CE 30 and DP 80 in positive ion mode. Percent conversion of the zymosterol-d5 to dehydrolathosterol-d5 was used to derive IC50 curves. Tasin-1 (1′-[(4-Methoxyphenyl)sulfonyl]-4-methyl-1,4′-bipiperidine, CAS 792927-06-1) was used as the reference small molecule inhibitor.
Percent conversion versus the compound concentration data were fit to the following 4-parameter logistic model to generate IC50 curves: […]
On to `Cc1nc(C(F)(F)F)ccc1S(=O)(=O)N1C[C@H]2C[C@H](NC3CC4(COC4)C3)C[C@H]2C1` [Example 30, (3aR,5s,6aS)-2-((2-Methyl-6-(trifluoromethyl)pyridin-3-yl)sulfonyl)-N-(2-oxaspiro[3.3]heptan-6-yl)octahydrocyclopenta[c]pyrrol-5-amine], for which the half-inhibitory concentration (IC50) lay within 100 to 500 nM.
Regarding `O=S(=O)(c1ccc(OC(F)F)cc1)N1C[C@H]2C[C@@H](NCC3CCOCC3)C[C@H]2C1` [Example 2, (3aR,5r,6aS)-2-((4-(Difluoromethoxy)phenyl)sulfonyl)-N-((tetrahydro-2H-pyran-4-yl)methyl)octahydrocyclopenta[c]pyrrol-5-amine], the IC50 is 100 to 500 nM.
In the case of `Cc1nc(C(F)(F)F)ccc1S(=O)(=O)N1C[C@H]2CN(CC34CCOC(C)(C3)C4)C[C@@H]2C1` (racemic) [Example 53, Rac-(3aR,6aR)-2-((1-methyl-2-oxabicyclo[3.1.1]heptan-5-yl)methyl)-5-((2-methyl-6-(trifluoromethyl)pyridin-3-yl)sulfonyl)octahydropyrrolo[3,4-c]pyrrole] it was 100 to 500 nM; in that of `Cc1cc(C)c(S(=O)(=O)N2CC3CN(C4CCOCC4)CC3C2)c(C)c1` (stereo not drawn) [Example 32, 2-(Mesitylsulfonyl)-5-(tetrahydro-2H-pyran-4-yl)octahydropyrrolo[3,4-c]pyrrole], less than 100 nM.
For the compound `Cc1nc(C(F)(F)F)nc(C)c1S(=O)(=O)N1C[C@H]2CN(CC3CCOCC3)C[C@@H]2C1` [Example 62, (3aR,6aR)-2-((4,6-dimethyl-2-(trifluoromethyl)pyrimidin-5-yl)sulfonyl)-5-((tetrahydro-2H-pyran-4-yl)methyl)octahydropyrrolo[3,4-c]pyrrole], the IC50 was less than 100 nM.
`O=S(=O)(c1ccc(OC(F)F)cc1)N1C[C@H]2C[C@H](NC3CCOCC3)C[C@H]2C1` [Example 16, (3aR,5s,6aS)-2-((4-(Difluoromethoxy)phenyl)sulfonyl)-N-(tetrahydro-2H-pyran-4-yl)octahydrocyclopenta[c]pyrrol-5-amine] registered a concentration for half-maximal inhibition (IC50) of less than 100 nM.
On to `COc1ncc(C)cc1S(=O)(=O)N1C[C@H]2C[C@H](NCC3CCOCC3)C[C@H]2C1` [Example 9, (3aR,5s,6aS)-2-((2-Methoxy-5-methylpyridin-3-yl)sulfonyl)-N-((tetrahydro-2H-pyran-4-yl)methyl)octahydrocyclopenta[c]pyrrol-5-amine], for which the IC50 lay in the range of 100 to 500 nM.
Compound `Cc1nc(C(F)(F)F)ccc1S(=O)(=O)N1C[C@H]2C[C@H](NCC3(C)COC3)C[C@H]2C1` [Example 29, (3aR,5s,6aS)-2-((2-Methyl-6-(trifluoromethyl)pyridin-3-yl)sulfonyl)-N-((3-methyloxetan-3-yl)methyl)octahydrocyclopenta[c]pyrrol-5-amine] returned a concentration for half-maximal inhibition (IC50) of less than 100 nM.
Compound `O=S(=O)(c1cc(F)cc(F)c1)N1C[C@H]2CN(C3CCOCC3)C[C@H]2C1` [Example 39, (3aR,6aS)-2-((3,5-Difluorophenyl)sulfonyl)-5-(tetrahydro-2H-pyran-4-yl)octahydropyrrolo[3,4-c]pyrrole] yielded a 50% inhibitory concentration (IC50) of 100 to 500 nM.
In turn, `N#Cc1cc(F)cc(S(=O)(=O)N2C[C@H]3CN(C4CCOCC4)C[C@H]3C2)c1` [Example 33, 3-Fluoro-5-(((3aR,6aS)-5-(tetrahydro-2H-pyran-4-yl)hexahydropyrrolo[3,4-c]pyrrol-2(1H)-yl)sulfonyl)benzonitrile] yielded an IC50 greater than 500 nM.
With `Cc1nc(C(F)(F)F)ccc1S(=O)(=O)N1C[C@H]2CN(CC3CCOCC3)C[C@@H]2C1` (racemic) [Example 51, Rac-(3aR,6aR)-2-((2-methyl-6-(trifluoromethyl)pyridin-3-yl)sulfonyl)-5-((tetrahydro-2H-pyran-4-yl)methyl)octahydropyrrolo[3,4-c]pyrrole], the IC50 was less than 100 nM.
`Cc1nc(C(F)(F)F)ccc1S(=O)(=O)N1C[C@H]2CN(C3CCOCC3)C[C@H]2C1` [Example 35, (3aR,6aS)-2-((2-Methyl-6-(trifluoromethyl)pyridin-3-yl)sulfonyl)-5-(tetrahydro-2H-pyran-4-yl)octahydropyrrolo[3,4-c]pyrrole]: the 50% inhibitory concentration (IC50) is less than 100 nM.
`Cn1nc(C2CC2)cc1S(=O)(=O)N1C[C@H]2C[C@H](NCC3CCOCC3)C[C@H]2C1` [Example 12, (3aR,5s,6aS)-2-((3-Cyclopropyl-1-methyl-1H-pyrazol-5-yl)sulfonyl)-N-((tetrahydro-2H-pyran-4-yl)methyl)octahydrocyclopenta[c]pyrrol-5-amine] gave a half-maximal inhibitory concentration (IC50) of 100 to 500 nM.
The figure for `Cc1nc(C(F)(F)F)ncc1S(=O)(=O)N1C[C@H]2CN(C3CCOCC3)C[C@@H]2C1` (racemic) [Example 57, Rac-(3aR,6aR)-2-((4-methyl-2-(trifluoromethyl)pyrimidin-5-yl)sulfonyl)-5-(tetrahydro-2H-pyran-4-yl)octahydropyrrolo[3,4-c]pyrrole] is 100 to 500 nM; for `Cc1nc(C(F)(F)F)ccc1S(=O)(=O)N1C[C@H]2CN(C3CCOCC3)C[C@@H]2C1` [Example 45, (3aR,6aR)-2-((2-Methyl-6-(trifluoromethyl)pyridin-3-yl)sulfonyl)-5-(tetrahydro-2H-pyran-4-yl)octahydropyrrolo[3,4-c]pyrrole] it is 100 to 500 nM.
`Cc1nc(C(F)(F)F)ccc1S(=O)(=O)N1C[C@@H]2CN(CC34COC(C)(C3)C4)C[C@H]2C1` (single isomer, unassigned) [Example 55] yielded a 50% inhibitory concentration (IC50) of 100 to 500 nM.
For `O=S(=O)(c1ccc(OC(F)F)cc1)N1C[C@H]2C[C@H](NC3CC4(COC4)C3)C[C@H]2C1` [Example 19, (3aR,5s,6aS)-2-((4-(Difluoromethoxy)phenyl)sulfonyl)-N-(2-oxaspiro[3.3]heptan-6-yl)octahydrocyclopenta[c]pyrrol-5-amine], the concentration for half-maximal inhibition (IC50) was 100 to 500 nM.
Turning to `Cc1cc(C)c(S(=O)(=O)N2C[C@H]3C[C@H](NCC4CCOCC4)C[C@H]3C2)cn1` [Example 10, (3aR,5s,6aS)-2-((4,6-Dimethylpyridin-3-yl)sulfonyl)-N-((tetrahydro-2H-pyran-4-yl)methyl)octahydrocyclopenta[c]pyrrol-5-amine], the IC50 was greater than 500 nM.
`Cc1ccc(S(=O)(=O)N2C[C@H]3C[C@@H](N4CCC(C)CC4)C[C@H]3C2)c(C)c1` [Example 5, (3aR,5r,6aS)-2-((2,4-Dimethylphenyl)sulfonyl)-5-(4-methylpiperidin-1-yl)octahydrocyclopenta[c]pyrrole] yielded an IC50 of less than 100 nM.
`Cn1nc(C2CC2)cc1S(=O)(=O)N1C[C@H]2C[C@H](NC3CC4(COC4)C3)C[C@H]2C1` [Example 20, (3aR,5s,6aS)-2-((3-Cyclopropyl-1-methyl-1H-pyrazol-5-yl)sulfonyl)-N-(2-oxaspiro[3.3]heptan-6-yl)octahydrocyclopenta[c]pyrrol-5-amine] displayed an IC50 of 100 to 500 nM.
`COc1ccc(S(=O)(=O)N2C[C@H]3CN(C4CCOCC4)C[C@H]3C2)c(C)n1` [Example 34, (3aR,6aS)-2-((6-Methoxy-2-methylpyridin-3-yl)sulfonyl)-5-(tetrahydro-2H-pyran-4-yl)octahydropyrrolo[3,4-c]pyrrole] came in with an IC50 of less than 100 nM.
